The test system of series [1] is croton oil-induced inflammation in rats and mice. In words: croton oil-induced inflammation (ear edema). It counts as in vivo. Particulars: systemically two hours before croton oil, ear weight after 16-24 hours. The protocol: The antiinflammatory actions of the compounds of general formula I were tested in the animal experiment by testing in the croton oil-induced inflammation in rats and mice (J. Exp. Med. (1995), 182, 99-108). In this connection, croton oil in ethanolic solution was administered topically to the animals' ears. The test substances were also administered topically or systemically simultaneously with or two hours before the croton oil. After 16-24 hours, the ear weight was measured as a yardstick of the inflammatory edema, the peroxidase activity was measured as a yardstick of the invasions of granuloctyes, and the elastase activity was measured as a yardstick of the invasions of neutrophilic granuloctyes. In this test, the compounds of general formula I inhibit the three above-mentioned inflammation parameters both after topical administration and after systemic administration.
The antiinflammatory actions of the compounds of general formula I were tested in the animal experiment in the croton oil-induced inflammation in rats and mice (J. Exp. Med. (1995), 182, 99-108). In this respect, croton oil in an ethanolic solution was administered topically to the ears in the animals. The test substances were systemically administered two hours before the croton oil. After 16-24 hours, the ear weight was measured as a yardstick of the inflammatory edema.

For series [2], the target named is T1, glucocorticoid receptor (GR) (Homo sapiens, UniProt P04150).
T1 construct: made in house; host or cells: Sf9 insect cells infected with recombinant baculovirus; cytosol preparation
T1 sequence (P04150 1-777): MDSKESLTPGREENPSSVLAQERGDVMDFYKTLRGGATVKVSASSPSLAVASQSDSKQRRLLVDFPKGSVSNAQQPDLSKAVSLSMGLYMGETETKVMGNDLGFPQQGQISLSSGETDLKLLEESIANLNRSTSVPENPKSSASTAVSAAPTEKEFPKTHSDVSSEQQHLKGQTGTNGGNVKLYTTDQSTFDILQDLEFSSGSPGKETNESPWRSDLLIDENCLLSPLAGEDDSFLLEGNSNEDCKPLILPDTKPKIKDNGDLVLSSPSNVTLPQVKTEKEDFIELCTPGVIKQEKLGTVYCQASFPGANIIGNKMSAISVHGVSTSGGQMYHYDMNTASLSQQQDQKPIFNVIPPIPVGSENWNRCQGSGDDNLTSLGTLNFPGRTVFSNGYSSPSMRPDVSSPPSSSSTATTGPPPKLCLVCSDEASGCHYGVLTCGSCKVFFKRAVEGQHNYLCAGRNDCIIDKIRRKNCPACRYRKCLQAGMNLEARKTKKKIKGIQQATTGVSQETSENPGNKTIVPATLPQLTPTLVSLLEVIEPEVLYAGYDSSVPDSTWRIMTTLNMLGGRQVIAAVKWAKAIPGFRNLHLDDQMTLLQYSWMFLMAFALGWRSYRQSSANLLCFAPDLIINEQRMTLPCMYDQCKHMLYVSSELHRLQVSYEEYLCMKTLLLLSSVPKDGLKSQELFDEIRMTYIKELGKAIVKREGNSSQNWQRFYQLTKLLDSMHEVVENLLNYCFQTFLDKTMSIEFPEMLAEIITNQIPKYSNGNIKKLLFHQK
As to the kind of experiment: glucocorticoid receptor (GR) binding test. Particulars: cytosol preparations of Sf9 cells infected with recombinant baculoviruses coding for the GR; 10 nM [3H]-dexamethasone. The source says: The binding of substances to the glucocorticoid receptor (GR) is examined with the aid of a recombinantly produced receptor. Cytosol preparations of Sf9 cells, which had been infected with recombinant baculoviruses, which code for the GR, are used for the binding studies.

For series [3], the system named is secretion of cytokine IL-8 in the human monocyte cell line THP-1. In words: inhibition of LPS-triggered IL-8 secretion in THP-1 cells. Also noted: Inhibition of IL-8 Secretion Effectiveness: concentration or dose not given beside the values. Particulars: ELISA of supernatant. The format is cell-based. The protocol:
The concentration of the cytokines was determined in the supernatant with use of commercially available ELISA kits.
The potency of the antiinflammatory action is determined in a cell test by the inhibition of the secretion of cytokine IL-8. […] The concentration of the cytokines was determined in the supernatant by means of commercially available ELISA kits. In this connection, the compounds of formula 1 show a high to very high potency and action in inhibition (see Table 10).

Series [4] deals with tyrosinamino transferase (TAT). Particulars: in vivo.
Experimental: (§1) The activity of this enzyme can be determined photometrically from liver homogenates and represents a good yardstick of the undesirable metabolic actions of the glucocorticoids. To measure the TAT induction, the animals are sacrificed 8 hours after the test substances are administered, the livers are removed, and the TAT activity in the homogenate is measured.
(§2) As a parameter for the side effects of the steroid-induced catabolic metabolism, the activity of the enzyme tyrosinamino transferase (TAT) was determined from liver homogenates by photometry. The activity represents a good yardstick of the undesirable metabolic actions of the glucocorticoids. To measure the TAT induction, the animals are sacrificed 8 hours after the test substances are administered, the livers are removed, and the TAT activity in the homogenate is measured.
Series [5] concerns tyrosinamino transferase (TAT). In words: induction of tyrosinamino transferase (TAT) activity in liver homogenates. Particulars: liver homogenate 8 hours after administration, n-fold increase compared to untreated animals.
Experimental: as §1, §2

The source of these data is US20020077356A1, “Nonsteroidal antiinflammatory agents” (priority 2000, published 2002).

The term IC50 denotes the point on the concentration scale where inhibition reaches its midpoint.

Like-named read-outs stand apart in the source and are kept apart here.

With `Cc1noc(=O)c2ccc(NC(=O)C(O)(CC3(c4cc(F)ccc4Cl)CC3)C(F)(F)F)cc12` (single isomer, unassigned; (+)) [Example 16, compound 13, (+)-6-[3-{1-(2-chloro-5-fluorophenyl)-cyclopropyl}-2-hydroxy-2-trifluoromethyl-propionyl]-amino-4-methyl-2,3-benzoxazin-1-one], in series [1], the “Edema inhibition with 3 mg/kg” value is 47% and the “Edema inhibition with 30 mg/kg” value is given as 106%. In addition, the IC50 in series [2] was under 0.3 nM. In series [3], the IC50 was 9.6 nM and the “Inhibition of IL-8 Secretion Effectiveness” value stood at 58%.

As for `Cc1noc(=O)c2ccc(NC(=O)C(O)(CC3(c4cc(F)ccc4C(F)(F)F)CCC3)C(F)(F)F)cc12` (single isomer, unassigned; (+)) [Example 16, compound 33, (+)-6-[3-{1-(5-fluoro-2-trifluoromethyl-phenyl)-cyclobutyl}-2-hydroxy-2-trifluoromethylpropionyl]-amino-4-methyl-2,3-benzoxazin-1-one], in series [1], the “Edema inhibition with 3 mg/kg” value is 77% and the “Edema inhibition with 30 mg/kg” value worked out at 86%. Further, the IC50 in series [2] turned out to be 1.1 nM. Moreover, in series [3], the IC50 was determined as 30 nM and the “Inhibition of IL-8 Secretion Effectiveness” value is reported as 45%.

As to `Cc1noc(=O)c2ccc(NC(=O)C(O)(CC3(c4cc(F)ccc4Cl)CCC3)C(F)(F)F)cc12` (single isomer, unassigned; (+)) [Example 16, compound 16, (+)-6-[3-{1-(2-chloro-5-fluorophenyl)-cyclobutyl}-2-hydroxy-2-trifluoromethyl-propionyl]-amino-4-methyl-2,3-benzoxazin-1-one], in series [4], the “Induction factor for TAT with 3 mg/kg” value was 1.3 and the “Induction factor for TAT with 30 mg/kg” value is 2.0. In series [1], the “Edema inhibition with 3 mg/kg” value is listed as 54% and the “Edema inhibition with 30 mg/kg” value came to 78%. Also, the half-inhibitory concentration (IC50) in series [2] came to 0.62 nM. In series [3], the IC50 is 10 nM and the “Inhibition of IL-8 Secretion Effectiveness” value is recorded as 80%.

Consider `C[C@]12C=CC(=O)C=C1CC[C@@H]1[C@@H]2[C@@H](O)C[C@@]2(C)[C@H]1CC[C@]2(O)C(=O)CO` [Prednisolone, reference compound], for which, in series [1], the “Edema inhibition with 3 mg/kg” value is 35% and the “Edema inhibition with 30 mg/kg” value was 84%. In series [3], the “Inhibition of IL-8 Secretion Effectiveness” value is 95%. Further, 24 nM corresponded to half-maximal inhibition in series [3] (Homo sapiens) (IC50). Moreover, the “Induction factor for TAT with 3 mg/kg” value in series [5] (3 mg/kg) was 2.6. The “Induction factor for TAT with 30 mg/kg” value in series [5] (30 mg/kg) was found to be 8.0.

Turning to `Cc1noc(=O)c2ccc(NC(=O)C(O)(CC(C)(C)c3ccc(F)cc3Cl)C(F)(F)F)cc12` (single isomer, unassigned; (+)) [Example 3, compound 9, (+)-6-[4-(2-chloro-4-fluoro-phenyl)-2-hydroxy-4-methyl-2-trifluoromethylvaleroyl]-amino-4-methyl-2,3-benzoxazin-1-one], in series [1], the “Edema inhibition with 3 mg/kg” value amounted to 50% and the “Edema inhibition with 30 mg/kg” value is 92%. In series [2], the IC50 was under 0.3 nM. In series [3], the midpoint of inhibition, the IC50, lay at 65 nM and the “Inhibition of IL-8 Secretion Effectiveness” value turned out to be 51%.

Consider `Cc1noc(=O)c2ccc(NC(=O)C(O)(CC3(c4ccccc4C(F)(F)F)CCC3)C(F)(F)F)cc12` (single isomer, unassigned; (+)) [Example 16, compound 26, (+)-6-[3-{1-(2-trifluoromethyl-phenyl)-cyclobutyl}-2-hydroxy-2-trifluoromethylpropionyl]-amino-4-methyl-2,3-benzoxazin-1-one], for which, in series [4], the “Induction factor for TAT with 3 mg/kg” value is recorded as 1.4 and the “Induction factor for TAT with 30 mg/kg” value was 3.7. Moreover, in series [1], the “Edema inhibition with 3 mg/kg” value came out at 11% and the “Edema inhibition with 30 mg/kg” value is given as 81%. The IC50 in series [2] was 16 nM. Moreover, in series [3], the midpoint of inhibition, the IC50, lay at 4.3 nM and the “Inhibition of IL-8 Secretion Effectiveness” value is recorded as 77%.
